Assay results: ChEMBL document CHEMBL5344425, “Discovery of 5-(Pyrimidin-2-ylamino)-1H-indole-2-carboxamide Derivatives as Nur77 Modulators with Selective and Potent Activity Against Triple-Negative Breast Cancer” (J Med Chem, 2023)
The source made the active and inactive calls. The rule behind the calls is not given here.

Columns and labels:
[1] = Toxicity in Zebra fish AB embryo assessed as mortality rate at 1.25 uM measured after 24 to 72 hrs; set-up: species or system Danio rerio; conditions: zebrafish, 1.25 µM, time 24-72 hrs
[2] = Toxicity in BALB/c mouse xenografted with human MDA-MB-231 cells assessed as morphological changes in spleen at 10 mg/kg, ip qd for 16 days by Hematoxylin-Eosin staining based analysis; format: organism-based; conditions: in vivo, 384 h, time 16 day
MDA-MB-231 [3] = test: Induction of apoptosis in human MDA-MB-231 cells assessed as PARP cleavage at 2.5 uM pretreated with protein synthesis inhibitor, cycloheximide for 4 hrs followed by compound addition and measured after 6 hrs by western blot analysis; format: functional, cell-based
MDA-MB-231 [4] = test: Induction of apoptosis in human MDA-MB-231 cells assessed as PARP cleavage at 2.5 uM pretreated with caspase inhibitor, Z-VAD-FMK for 4 hrs followed by compound addition and measured after 6 hrs by western blot analysis; format: functional, cell-based
MDA-MB-231 [5] = test: Induction of apoptosis in human MDA-MB-231 cells assessed as proportion of early apoptotic cells at 0.63 uM measured after 5 hrs by AnnexinV-FITC/PI staining based flow cytometry (reference value: 3.35%); format: functional
[6] = biological target: T1, Nuclear receptor subfamily 4immunitygroup A member 1 (Homo sapiens, UniProt P22736); test: Modulation of Nur77 in human MDA-MB-231 cells assessed as increase in TP53 phosphorylation at Ser15 residue at 0.31 to 5 uM measured after 6 hrs by western blot analysis; format: cell-based; conditions: filed as modulator, dose 0.31-5 µM
[7] = Toxicity in BALB/c mouse xenografted with human MDA-MB-231 cells assessed as body weight loss at 10 mg/kg, ip qd for 16 days; format: organism-based; conditions: in vivo, 384 h, time 16 day
MDA-MB-231 [8] = test: Induction of apoptosis in human MDA-MB-231 cells assessed as proportion of early apoptotic cells at 0.32 uM measured after 5 hrs by AnnexinV-FITC/PI staining based flow cytometry (reference value: 3.35%); format: functional
HeLa = test: Antiproliferative activity against human HeLa cells transfected with Nur77 siRNA assessed as inhibition of cell growth measured after 24 hrs by MTT assay; format: functional, cell-based
[9] = Cytotoxicity against human MCF-10A cells assessed as inhibition of cell growth measured after 24 hrs by MTT assay; format: toxicity, cell-based
[10] = biological target: T1, Nuclear receptor subfamily 4immunitygroup A member 1; test: Modulation of Nur77 in human MDA-MB-231 cells assessed as increase in TP53 phosphorylation at Ser37 residue at 0.31 to 5 uM measured after 6 hrs by western blot analysis; format: cell-based; conditions: filed as modulator, dose 0.31-5 µM
MDA-MB-231 [11] = test: Induction of apoptosis in human MDA-MB-231 cells assessed as PARP cleavage at 2.5 uM pretreated with PI3K and autophagy inhibitor, Wortmannin for 4 hrs followed by compound addition and measured after 6 hrs by western blot analysis; format: functional, cell-based
MDA-MB-231 [12] = test: Induction of apoptosis in human MDA-MB-231 cells transfected with ctr siRNA assessed as loss of mitochondrial membrane potential at 2 uM measured after 6 hrs by JC-1 staining based flow cytometry (reference value: 13.93%); format: functional
[13] = Toxicity in BALB/c mouse xenografted with human MDA-MB-231 cells assessed as abnormal behaviour at 10 mg/kg, ip qd for 16 days; format: organism-based; conditions: in vivo, 384 h, time 16 day
MDA-MB-231 [14] = test: Induction of apoptosis in human MDA-MB-231 cells transfected with Myc-cmv assessed as PARP cleavage at 2 to 5 uM measured after 6 hrs by western blot analysis; format: functional, cell-based; conditions: dose 2-5 µM
MDA-MB-231 [15] = test: Induction of apoptosis in human MDA-MB-231 cells transfected with Myc-Nur77 assessed as PARP cleavage at 2 to 5 uM measured after 6 hrs by western blot analysis; format: functional, cell-based; conditions: dose 2-5 µM
MDA-MB-231 [16] = test: Antitumor activity against human MDA-MB-231 cells xenografted in BALB/c mouse assessed as inhibition of tumor growth at 10 mg/kg, ip qd for 16 days; format: functional; conditions: MDA-MB-231, 384 h, time 16 day, read-out: TGI
[17] = Toxicity in Zebra fish AB embryo assessed as mortality rate at 1.25 to 5 uM measured after 24 to 72 hrs; set-up: species or system Danio rerio; conditions: zebrafish, dose lower 1.25 µM, time lower 24 hrs, dose upper 5 µM, time upper 72 hrs
MDA-MB-231 [18] = test: Induction of apoptosis in human MDA-MB-231 cells assessed as proportion of late apoptotic cells at 2.5 uM measured after 5 hrs by AnnexinV-FITC/PI staining based flow cytometry (reference value: 2.55%); format: functional
MDA-MB-231 [19] = test: Antitumor activity against human MDA-MB-231 cells xenografted in BALB/c mouse assessed as tumor weight at 10 mg/kg, ip qd for 16 days (reference value: 1.17 gms); format: functional; conditions: time 16 day
[20] = biological target: T1, Nuclear receptor subfamily 4immunitygroup A member 1; test: Binding affinity to wild type Nur77 ligand binding domain (unknown origin) assessed as decrease in fluorescence intensity incubated for 30 secs by fluorescence spectrophotometric analysis
HT-29 = test: Antiproliferative activity against human HT-29 cells assessed as inhibition of cell growth measured after 24 hrs by MTT assay; format: functional, cell-based; conditions: HT-29, 24 h
MDA-MB-231 [21] = test: Induction of apoptosis in human MDA-MB-231 cells assessed as proportion of late apoptotic cells at 5 uM measured after 5 hrs by AnnexinV-FITC/PI staining based flow cytometry (reference value: 2.55%); format: functional
MDA-MB-231 [22] = test: Antitumor activity against human MDA-MB-231 cells xenografted in BALB/c mouse assessed as decrease in Ki67 expression in tumor at 10 mg/kg, ip qd for 16 days by immunohistochemical staining based analysis; format: functional, organism-based; conditions: time 16.0 day
MDA-MB-231 [23] = test: Induction of apoptosis in human MDA-MB-231 cells transfected with Nur77 siRNA assessed as early apoptotic cells at 1 uM measured after 6 hrs by AnnexinV-FITC/PI staining based flow cytometry (reference value: 1.88%); format: functional
MDA-MB-231 [24] = test: Induction of apoptosis in human MDA-MB-231 cells assessed as PARP cleavage at 2.5 uM pretreated with mTOR inhibitor, rapamycin for 4 hrs followed by compound addition and measured after 6 hrs by western blot analysis; format: functional, cell-based

T1 sequence (P22736 whole entry): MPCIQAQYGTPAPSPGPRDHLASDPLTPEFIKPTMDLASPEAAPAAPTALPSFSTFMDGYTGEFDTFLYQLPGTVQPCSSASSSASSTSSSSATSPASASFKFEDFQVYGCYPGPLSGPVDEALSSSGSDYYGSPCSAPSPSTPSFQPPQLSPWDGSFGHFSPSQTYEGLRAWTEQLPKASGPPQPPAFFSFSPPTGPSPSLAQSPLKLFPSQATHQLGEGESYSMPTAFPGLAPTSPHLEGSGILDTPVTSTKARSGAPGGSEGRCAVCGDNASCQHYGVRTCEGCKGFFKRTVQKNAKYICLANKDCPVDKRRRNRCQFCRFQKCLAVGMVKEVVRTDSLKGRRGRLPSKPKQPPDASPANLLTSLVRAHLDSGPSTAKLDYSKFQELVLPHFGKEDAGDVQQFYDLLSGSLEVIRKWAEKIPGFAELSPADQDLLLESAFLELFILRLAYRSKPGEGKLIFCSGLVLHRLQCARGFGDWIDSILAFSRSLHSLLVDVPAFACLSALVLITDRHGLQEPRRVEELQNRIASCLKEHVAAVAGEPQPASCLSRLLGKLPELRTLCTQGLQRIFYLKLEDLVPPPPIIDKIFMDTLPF

Question: For `CCN(CC)CCCNC(=O)c1cc2cc(Nc3nccc(-c4sc(NC)nc4C)n3)ccc2[nH]1`, which Activity [1] is on record?
Answer: Its Activity is “Non-Toxic”.

Question: What about the Activity [2] of the same compound?
Answer: The Activity was “Non-Toxic”.

Question: And the Activity (MDA-MB-231 [3])?
Answer: Its Activity is “Active”.

Question: And the Activity (MDA-MB-231 [4])?
Answer: Its Activity is “inactive”.

Question: What about the Activity (MDA-MB-231 [5]) of the same compound?
Answer: Its Activity is 20.22%.

Question: What about the Activity [6] of the same compound?
Answer: Its Activity is “Active”.

Question: And the Activity [7]?
Answer: The Activity was “Non-Toxic”.

Question: And the Activity (MDA-MB-231 [8])?
Answer: Its Activity is 9.81%.

Question: What about the IC50 (HeLa) of the same compound?
Answer: The IC50 was 9.15 µM.

Question: What about the IC50 at 24 h [9] of the same compound?
Answer: The IC50 at 24 h was 48 µM.

Question: And the Activity [10]?
Answer: The Activity was “Active”.

Question: And the Activity (MDA-MB-231 [11])?
Answer: Its Activity is “Active”.

Question: And the Activity (MDA-MB-231 [12])?
Answer: Its Activity is 68.69%.

Question: What about the Activity [13] of the same compound?
Answer: Its Activity is “Non-Toxic”.

Question: And the Activity (MDA-MB-231 [14])?
Answer: The Activity was “Active”.

Question: And the Activity (MDA-MB-231 [15])?
Answer: The Activity was “Active”.

Question: And the inhibition in vivo at 10 mg/kg (MDA-MB-231 [16])?
Answer: The inhibition in vivo at 10 mg/kg was 100%.

Question: What about the Activity [17] of the same compound?
Answer: Its Activity is “Non-Toxic”.

Question: And the Activity (MDA-MB-231 [18])?
Answer: Its Activity is 16.69%.

Question: And the Activity (MDA-MB-231 [19])?
Answer: Its Activity is 0.06 g.

Question: What about the Kd [20] of the same compound?
Answer: Its Kd is 0.154 µM.

Question: And the IC50 (HT-29)?
Answer: Its IC50 is 47.2 µM.

Question: What about the Activity (MDA-MB-231 [21]) of the same compound?
Answer: The Activity was 21.84%.

Question: What about the Activity (MDA-MB-231 [22]) of the same compound?
Answer: The Activity was “Active”.

Question: And the Activity (MDA-MB-231 [23])?
Answer: The Activity was 2.25%.

Question: And the Activity (MDA-MB-231 [24])?
Answer: Its Activity is “Active”.
